# Measured values: US20090118135A1, “METHODS AND COMPOUNDS FOR REGULATING APOPTOSIS” (The Burnham Institute, priority 2007, published 2009)
# Where “and” joins values, the source holds several entries; their conditions need not be identical. Equal values may be shown once. Read-outs that look alike come from different tables or passages of the source. Where a SMILES comes first, the peptide text is derived from it. [ ]: non-standard residue; d: D form. Ahx = NCCCCCC(=O)O
# Experiments:
# [1] = target: GST-Hsp70 (Homo sapiens, UniProt P0DMV8); assay: FITC-ATP/GST-Hsp70 fluorescence polarization counter-screen; type: binding; details: HSP/FITC-ATP counter screen
# Chain of GST-Hsp70 (P0DMV8 whole entry): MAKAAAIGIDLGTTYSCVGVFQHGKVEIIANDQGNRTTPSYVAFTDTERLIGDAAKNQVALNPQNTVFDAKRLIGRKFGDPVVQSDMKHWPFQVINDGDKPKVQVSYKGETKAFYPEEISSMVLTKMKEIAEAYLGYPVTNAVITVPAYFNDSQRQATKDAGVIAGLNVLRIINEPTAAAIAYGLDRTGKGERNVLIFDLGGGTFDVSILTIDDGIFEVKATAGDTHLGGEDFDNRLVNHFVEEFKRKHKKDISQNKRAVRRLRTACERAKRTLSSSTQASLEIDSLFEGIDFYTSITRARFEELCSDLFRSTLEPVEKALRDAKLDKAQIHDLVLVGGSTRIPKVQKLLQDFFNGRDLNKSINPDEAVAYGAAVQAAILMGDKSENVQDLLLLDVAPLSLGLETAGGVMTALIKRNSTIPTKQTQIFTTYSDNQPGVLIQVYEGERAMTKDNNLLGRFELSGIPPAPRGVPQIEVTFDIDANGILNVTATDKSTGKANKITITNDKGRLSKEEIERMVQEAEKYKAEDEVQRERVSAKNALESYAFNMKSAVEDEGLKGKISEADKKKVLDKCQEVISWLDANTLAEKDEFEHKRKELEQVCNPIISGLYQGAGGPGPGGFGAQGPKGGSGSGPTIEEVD
# Experimental: Dose-response curves were then generated (fluorescent compounds were eliminated), followed by counter-screening using a biologically unrelated FPA (GST-Hsp70/FITC-ATP).
# A number of assays were then performed to eliminate non-specific or irreproducible hits (FIG. 21). […] Second, compound dose-response curves were generated using the fluorescence polarization assay. […] Finally, 1D-NMR was used to test the compounds for binding to GST-Bcl-B versus GST (as a negative control) (FIG. 22).
# [2] = target: T1, GST-Bcl-B (Homo sapiens, UniProt Q9HD36); assay: biochemical
# T1 sequence (Q9HD36 1-182 limits assumed): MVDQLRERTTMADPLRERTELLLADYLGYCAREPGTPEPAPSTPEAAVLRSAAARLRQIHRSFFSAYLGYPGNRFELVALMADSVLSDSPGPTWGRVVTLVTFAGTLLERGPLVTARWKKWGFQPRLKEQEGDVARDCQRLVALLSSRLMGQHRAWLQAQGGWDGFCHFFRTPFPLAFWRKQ
# [3] = target: GST-Bcl-2 (Homo sapiens, UniProt P10415); assay: Bcl-2/FITC-TR3 fluorescence polarization competition assay (PBS + Tween-20); details: for Bcl-2 H Coefficient: Hill coefficient of Bcl-2 dose-response curve
# Chain of GST-Bcl-2 (P10415 1-218 limits assumed): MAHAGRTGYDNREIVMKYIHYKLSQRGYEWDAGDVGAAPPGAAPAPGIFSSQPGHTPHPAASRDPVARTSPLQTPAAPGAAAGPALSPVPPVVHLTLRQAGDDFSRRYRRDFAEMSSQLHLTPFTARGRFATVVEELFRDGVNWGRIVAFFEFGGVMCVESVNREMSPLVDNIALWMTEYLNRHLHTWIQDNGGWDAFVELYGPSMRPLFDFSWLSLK
# Experimental: For the Chembridge screen, IC50s for each compound with respect to the Bcl-B/FITC-TR3 (In Hepes/β-glycerophophate/tween-20) fluorescence polarization and the Bcl-2/FITC-TR3 (In PBS+tween-20) fluorescence polarization assays were identified.
# Fluorescence polarization was then measured using an Analyst HT Multi-Mode Plate Reader (LJL Biosystems, Sunnyvale, Calif.).
# [4] = target: T1, GST-Bcl-B; assay: Bcl-B/FITC-TR3-r8 fluorescence polarization competition (displacement) assay, HTS and dose-response; details: for Bcl-B H Coefficient: Hill coefficient of Bcl-B dose-response curve; for displacement of FITC-TR3-r8 from GST-Bcl-B: result in words
# [5] = tested on: HeLa Tet-On-Bcl-B (HTO2) cells; assay: Cell viability (ATPlite) in HeLa Tet-On-Bcl-B cells with or without doxycycline; type: cell-based; details: 24 h, read-out: concentration required to reduce HeLa Tet-On-Bcl-B cell viability by 50%
# Experimental: FIG. 24A is a photograph of a blot wherein HeLa Tet-On (HTO1) and HeLa Tet-On-Bcl-B (HTO2) cells were treated with or without doxycycline (dox) for 24 h to induce their tetracycline-responsive promoters. Protein lysates were collected, and immunoblotting was used to analyze Bcl-B and Hsc70 (for loading control) expression. In FIG. 24B the cells were treated with or without doxycycline for 24 h, and then with staurosporine at the indicated concentrations for 24 h. Cell viability was measured using ATPlite. In FIG. 24C HeLa Tet-On-Bcl-B (HTO2) cells were treated with or without doxacycline as above. Compounds were then added at the indicated concentrations, and cell viability was measured 24 h later using ATPlite. The data shown represent mean±standard deviation (n=3).
# HeLa Tet-On-Bcl-B cells were generated by stably transfecting the HeLa Tet-On cell line (Clontech, Mountain View, Calif.) with a pTRE2hyg vector (Clontech) containing the Bcl-B gene, using lipofectAMINE PLUS (Invitrogen, Carlsbad, Calif.). Briefly, cells were seeded overnight and transfected at 50% confluency for 3 h. After 24 h, the cells were re-seeded at <10% confluence and cultured in media (DMEM with 10% Tet System Approved FBS (Clontech)) containing G418 (100 μg/mL) and hygromycin B (300 μg/mL) for pTet-On and pTRE2hyg/Bcl-B plasmid maintenance, respectively. Positive foci resistant to both antibiotics were expanded. Colonies were then cultured in the presence or absence of doxycycline (Clontech, 1 μg/mL) for 16 h, and induced Bcl-B expression was confirmed by Western blot analysis. A previously developed polyclonal Bcl-B antibody^17 and an Hsc70 antibody (for protein concentration comparison; Santa Cruz Biotechnology, Santa Cruz, Calif.) were used.
# Cells were seeded in 96-well plates at 5,000 cells/well in 100 μL of growth medium and allowed to incubate for 24 h. Afterwards, cells were incubated in the presence or absence of doxycycline (1 μg/mL) for another 24 h (to induce Bcl-B expression). Compounds were then added, as indicated, in a volume of 5 μL. The next day, cell viability was measured using the ATPlite Luminescence ATP Detection System (PerkinElmer, Waltham, Mass.) according to the manufacturer's specifications.
Structure (SMILES),IC50 [2],Bcl-B H Coefficient [4],further results
CC1=C(C#N)c2nc(N)c(C#N)c(C)c2/C1=C/c1ccc(-c2ccc(C(=O)O)c(Cl)c2)o1 [Compound 6025233],1.65 µM,1.206,HSP70 IC50 (Hill) [1]: high; Bcl-2 H Coefficient [3]: 3.081
CN1CCN(CN2C(=O)/C(=N\NC(=O)CSc3nc4ccccc4s3)c3ccccc32)CC1 [Compound 6062681],12.9 µM,2.531,
Clc1ccc(C2C=C(c3ccccc3)Nc3ncnn32)cc1 (stereo not shown) [Compound 5223675],14.2 µM,0.939,HSP70 IC50 (Hill) [1]: high
O=C1NN(c2ccc(F)c(Cl)c2)C(=O)/C1=C\c1ccco1 [Compound 5837788],33.4 µM,1.772,
"O=C(O[C@@H]1Cc2c(O)cc(O)cc2O[C@@H]1c1cc(O)c(O)c(O)c1)c1cc(O)c(O)c(O)c1 [EGCG, epigallecatechin]",,,IC50 ([5]; in the absence of Bcl-B (without doxycycline)): 79 µM; IC50 ([5]; in the presence of Bcl-B (with doxycycline)): ~93 µM; displacement of FITC-TR3-r8 from GST-Bcl-B [4]: none of these reagents displaced FITC-TR3-r8
O=C1C=CC2=C3Oc4c(ccc5cc(O)ccc45)C(c4ccccc4C(=O)O)C3C=CC2=C1 (stereo not shown) [Compound 5466725],1.68 µM,3.03,
COc1ccc(Nc2ccc(N)cc2)cc1 [Compound 5529774],7.22 µM,2.718,
Cc1cc(I)c2c(c1)C1C=CCC1C(C(=O)O)N2 (stereo not shown) [Compound 6048134],20.7 µM,1.406,
Oc1cccc(/C=N/C2=C(c3ccco3)N=C3C=CC=CC32)c1 (stereo not shown) [Compound 5612880],9.1 µM and 9.07 µM,0.5836,
Oc1ccc(Nc2nc(-c3ccccn3)cs2)cc1 [Compound 5662807],3.69 µM,1.182,Bcl-2 H Coefficient [3]: 1.241
Cc1ccc(C)n1-c1ccc(OCC(=O)O)cc1 [Compound 5988031],8.75 µM,0.6411,
O=C1C=CC(=O)C(/C(=C/NCc2ccccc2)[N+](=O)[O-])=C1 [Compound 5261378],5.7 µM,3.214,
"CC(=O)N[C@@H](Cc1ccccc1)C(=O)N[C@@H](CO)C(=O)N[C@@H](CCCNC(=N)N)C(=O)N[C@@H](CO)C(=O)N[C@@H](CC(C)C)C(=O)N[C@@H](Cc1c[nH]cn1)C(=O)N[C@@H](CO)C(=O)N[C@@H](CC(C)C)C(=O)N[C@@H](CC(C)C)C(=O)NCC(=O)NCCCCCC(=O)N[C@H](CCCNC(=N)N)C(=O)N[C@H](CCCNC(=N)N)C(=O)N[C@H](CCCNC(=N)N)C(=O)N[C@H](CCCNC(=N)N)C(=O)N[C@H](CCCNC(=N)N)C(=O)N[C@H](CCCNC(=N)N)C(=O)N[C@H](CCCNC(=N)N)C(=O)N[C@H](CCCNC(=N)N)C(N)=O [TR3-r8, reference compound] (Ac-FSRSLHSLLG[Ahx][dR][dR][dR][dR][dR][dR][dR][dR]-NH2)",,,displacement of FITC-TR3-r8 from Bcl-2 ([3]; result in words): effectively competed for binding; EC50 [4]: 0.0828 µM; displacement of FITC-TR3-r8 from GST-Bcl-B [4]: displaced FITC-TR3-r8 as expected
COc1ccc(OC)c(C=NNC(=O)C2C=CN(CC(=O)c3ccccc3)C=C2)c1 [Compound 5483976],1.35 µM and 1.34 µM,2.127,
O=C(O)c1ccc2c(c1)C1C=CCC1C(c1cccc([N+](=O)[O-])c1)N2 (stereo not shown) [Compound 5475298],1.75 µM,1.336,
Cc1ccc2oc3cc(NCCCN(C)C)c4c(=O)c5ccccc5c(=O)c4c3[nH]c2c1 [Compound 5468863],0.673 µM,1.907,
O=C(O)C1Nc2c(cccc2[N+](=O)[O-])C2C=CCC12 (stereo not shown) [Compound 5665283],1.2 µM,1.829,
O=C(O)C1Nc2ccc3ccccc3c2C2C=CCC12 (stereo not shown) [Compound 5657743],7.15 µM,3.005,
Nc1ccc(Oc2ccc(N)c(N)c2)cc1N [Compound 5152592],,1.303,HSP70 IC50 (Hill) [1]: High; Bcl-2 H Coefficient [3]: 1.428; IC50 ([4]; Bcl-B IC50 (g/L)): 5.37 µM; IC50 ([4]; Bcl-B IC50 (uM)): 5.37 µM
O=C(O)c1ccc([N+](=O)[O-])c2c1NC(c1ccccc1)C1CC=CC21 (stereo not shown) [Compound 5853021],3.92 µM,2.481,
